Literature values as cited in patent publication US20200061109A1, “ZINC CHLORIDE HYDROXIDE HAVING EXCELLENT ZINC ION SUSTAINED-RELEASABILITY AND PRODUCTION METHOD THEREFOR” (JFE MINERAL COMPANY, LTD., priority 2016, published 2020).

Assays:
skin = conditions: in vivo

Q: Which results are given for `[Zn+2]` [Zn^2+ ions]?
A: concentration at which no toxicity is shown against fibroblasts (fibroblasts): no more than 500 μmol/L; level that increases inflammatory cell infiltration of skin and significantly delays re-epithelialization (skin): not less than 15 mmol/L
